Each structure is given as a SMILES string. pEC50: −log10 of the molar value. Some results are limits rather than exact numbers.

The assay concerns Symmetric di-Methyl Arginine in Z-138 cells. Nature of the assay: Z-138 Methylation Assay (In Cell Western for symmetric di-methyl arginine). Type of assay: cell-based. Conditions: Homo sapiens, 96 hours incubation, symmetric di-methyl arginine normalised to DNA content, read-out: ICW EC50. In short, it runs like this:
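Z-138 cells were treated with compound for 96 h at 37 °C, then fixed on poly-D-lysine plates. Symmetric di-methyl arginine was detected by In-Cell Western (800 nm) with DRAQ5 DNA normalisation (700 nm). Percent inhibition used DMSO and 3 μM reference-compound controls; IC50 curves came from triplicate wells.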
Regarding `CC(=O)N1CC(Nc2cc(C(=O)NC[C@H](O)CN3CCc4c(cnn4C)C3)ncn2)C1` [Compound 3-29], the pEC50 (as a rule, the EC50 on a negative log10 scale, so that one unit is a factor of ten) was less than 6.00.

Consider `O=C(COc1cccc2cccnc12)NCC(O)CN1CCc2ccsc2C1` (stereo not drawn) [Compound 1-5, N-(2-hydroxy-3-{4H,5H,6H,7H-thieno[2,3-c]pyridin-6-yl}propyl)-2-(quinolin-8-yloxy)acetamide], for which the pEC50 was 6.00 to 7.00. For `CC(=O)N1CCC(Nc2cc(C(=O)NC[C@H](O)CN3CCc4ncn(C)c4C3)ncn2)CC1` [Compound 3-30, (S)-6-((1-acetylpiperidin-4-yl)amino)-N-(2-hydroxy-3-(3-methyl-6,7-dihydro-3H-imidazo[4,5-c]pyridin-5(4H)-yl)propyl)pyrimidine-4-carboxamide], the negative logarithm of the EC50 (pEC50) is less than 6.00.

The record behind these values is US20170210751A1, “PRMT5 INHIBITORS AND USES THEREOF” (Epizyme, Inc., priority 2014, published 2017).
